Data reported in BindingDB's records for patent US11084800 (Achillion Pharmaceuticals, 2021).

Target: Complement factor D (Homo sapiens, UniProt P00746)
Experiment: Factor D Assay
Protocol: Human Factor D (purified from human serum, Complement Technology, Inc.) at 80 nM final concentration is incubated with test compound at various concentrations for 5 min at room temperature in 50 mM Tris, 1M NaCl, pH 7.5. A synthetic substrate Z-L-Lys-SBz and DTNB (Ellman's reagent) are added to final concentrations of 100 μM each. Absorbance at 405 nm (A405) is recorded at 30 second intervals for 30 min using a microplate spectrophotometer. IC50 values are calculated by nonlinear regression of complement Factor D reaction rates as a function of test compound concentration.

Chain of Complement factor D (P00746 whole entry): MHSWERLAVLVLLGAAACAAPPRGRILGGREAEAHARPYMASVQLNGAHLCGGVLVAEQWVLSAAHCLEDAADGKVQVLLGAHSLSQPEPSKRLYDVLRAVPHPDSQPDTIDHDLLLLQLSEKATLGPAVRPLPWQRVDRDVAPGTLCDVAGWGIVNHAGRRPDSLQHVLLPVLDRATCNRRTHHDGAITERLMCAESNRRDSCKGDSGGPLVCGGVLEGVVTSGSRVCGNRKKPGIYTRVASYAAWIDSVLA

CC(=O)c1nn(CC(=O)N2C[C@H]3C[C@H]3[C@H]2C(=O)N2C[C@H]3C[C@H]3C2C(=O)Nc2nc(Br)ccc2C)c2c(C)cc(-c3cnc(C)nc3)cc12 (stereo partly specified) [US11084800, Cpd No. 92]
IC50: in the range around 5.5 µM
